Experimental data reported in publication PMC9822352, “Design, Synthesis and Evaluation of New Multifunctional Benzothiazoles as Photoprotective, Antioxidant and Antiproliferative Agents” (Molecules, 2022).
Values joined by “and” are separate entries in the source; they are usually repeats but may differ in a detail not shown here. Equal values may be shown once.

Experiments:
[1] = UV spectra in solution (MeOH-DMSO): λmax and molar extinction coefficient; type: physicochemical; conditions: for ε (molar extinction coefficient): at λmax, Lambert-Beer equation, in M-1 cm-1 (unit assumed); for λmax: solution in MeOH-DMSO, 290–400 nm
Experimental: We next investigated the protective potential against UV radiation of each compound. Specifically, in vitro tests were conducted to determine the parameters related to absorption in the UV spectrum and those fundamental to the relative evaluation of the filtering potential and thus candidature as possible UV sunscreen ingredients of the candidates under examination, including λ critical and SPF (sun protection factor). Since the SPF is correlated to the UV quantitative absorption of the substances, the wavelength of maximum absorption (λmax) and the molar extinction coefficient (ε) of the derivatives in solution (MeOH-DMSO) were evaluated (Figures S1 and S2, Supplementary Materials). The UV spectra of the compounds BZTidr1–6 and BZTcin1–5 were recorded in the UVA-UVB range (290–400 nm) to evaluate their profile and compare it to that of the PBSA, a commercial UVB filter that has a λmax of 302 nm. After this peak, the absorbance of PBSA drops, reaching almost zero in the 325 nm range, and thus not providing absorption in the UVA region.
Once the λmax of each derivative was established, the molar extinction coefficient ε was calculated by applying the Lambert-Beer equation (Table S1, Supplementary Materials): the higher this value, the greater the ability of the compound under examination to absorb UV radiation. […] The excellent values of BZTidr1, BZTidr2 and BZTidr3 are ascribed to the aforementioned hyperchromic shift. In regard to the BZTcin1–5 series, the molar extinction coefficients calculated were very high, and the best values were those of BZTcin1, BZTcin2 and BZTcin3, also attributable to the hyperchromic shift of the absorption spectra. For both series, the excellent absorption capacity of ultraviolet radiation can be traced back to the high π-type conjugation that characterizes them.

[2] = FRAP (Ferric Reducing Antioxidant Power) assay; conditions: Trolox standard, 37 °C 10 min, 593 nm; mean ± SEM
Description: The FRAP (Ferric Reducing Antioxidant Power) test allows the measurement of the ability of antioxidants to reduce ferric ion to ferrous. This method represents one of the simplest, quickest and least expensive methods for the determination of reducing properties on oxidized species in vitro.
The FRAP test (Ferric Reducing Antioxidant Power) is based on a colorimetric reaction and evaluates the ability of a sample of reducing ferric ions to ferrous ion while complexed with TPTZ (2,4,6-trispyridil-s-triazine). The FRAP solution was prepared from 0.1 M acetate buffer (pH 3.6), 10 mmol/L of TPTZ in 40 mM HCl, and 20 mM solution of FeCl3, with a 10:1:1 ratio, as described. Then, 1.9 mL of this solution was incubated with 0.1 mL of the sample solution at 37 °C for 10 min. The absorbance was read with a UV-Vis spectrophotometer at a 593 nm wavelength, relative to the maximum peak of absorbance of Fe^2+-TPTZ complex. Trolox® was used as a standard and the results are expressed as µmolTE/g.

[3] = In vitro filtering parameters of O/W sunscreen formulation containing 3% compound (modified Diffey-Robson, PMMA plates); conditions: 3% in formulation, before irradiation
Description: All synthesized compounds were formulated at 3% and their photoprotective efficacy, determined by spectrophotometric measurements using the modified Diffey-Robson method, was compared with that of the lead compound PBSA (used at 3% in the same formulation) and using the base without active as a control (Table 2).
The synthesized compounds were incorporated at a concentration of 3% in a typical oil-in-water sunscreen formulation, to evaluate the filtering parameters, and have the following ingredient composition:
INCI (International Nomenclature Cosmetic Ingredients): aqua, glycerin, Euxyl PE 9010, xanthan gum, Tribehenin PEG-20 Esters, cetearyl alcohol, dicaprylyl carbonate, PPG-26-Buteth-26 (and) PEG-40 Hydrogenated Castor Oil (and) water, C12-C15 Alkyl Benzoate, and Sodium hydroxide (sol. 10%).
As previously reported the protocol indicates to spread 32.5 mg of each formulation on 25 cm^2 PMMA plates with the fingers. Each formulation was tested in triplicate, and five measurements were recorded for each dish, following a 15–30 min incubation in the dark at room temperature. UV transmittance data was recorded using a UV-VIS spectrophotometer in the range 290–400 nm. The blank plate, SPF, UVA-PF and critical wavelength were obtained by SPF Calculator software (version 2.1), Shimadzu, Milan, Italy).

[4] = tested on: HaCat cell line; assay: Pro-apoptotic activity (Annexin V method), HaCat; type: cell-based, human; conditions: 24 h
Experimental: The Annexin V assay was conducted at two concentrations approaching IC50 values toward the selected cell lines reported in Table 3. The complete set of data is reported in Table 4, while representative data from the analysis of the corresponding Muse Analyzer plots are shown in Figure 2.
Apoptosis assays were performed with a Muse® Cell Analyzer instrument (Merck Millipore, Burlington, MA, USA) and the kit on Colo-38 and HaCat cell lines according to the manufacturer’s protocol. Cells were treated and exposed to the compounds for 24 h. This procedure is based on the detection of PS (PhosphatidylSerine) exposed on the external membrane of apoptotic cells by Annexin V. Four populations of cells can be distinguished using this assay: live, early apoptotic, late apoptotic and dead cells. The MUSE cell analyzer can discriminate “early” from “late” apoptosis since “early apoptotic cells” are Annexin V-positive and 7-AAD-negative, while “late apoptotic cells” are positive to both Annexin V and 7-AAD (7-aminoactinomycin D). The DNA intercalating molecule 7AAD (7-aminoactinomycin D) is used as an indicator of cell membrane integrity, since it binds DNA only in cells undergoing late apoptosis/death stage, when the membrane integrity is lost. Muse Annexin V and Dead Cell reagent were used to dilute the cells (1:1). After 20 min of incubation between cell samples and the kit at room temperature in the dark, the samples were analyzed using 0.01% Triton X-100 as positive control. The data were acquired and recorded using the Annexin V and Dead Cell software module (Millipore, Billerica, MA, USA).

| SMILES | ε (molar extinction coefficient) [1] | λmax [1] | FRAP [2] | SPF [3] | UVA/UVB [3] | UVAPF0 [3] | λc [3] | Dead (%) ([4]; 5 µM) | Early Apoptosis (%) ([4]; 5 µM) | Late Apoptosis (%) ([4]; 5 µM) | Dead (%) ([4]; 10 µM) | Early Apoptosis (%) ([4]; 10 µM) | Late Apoptosis (%) ([4]; 10 µM) | Dead (%) ([4]; 50 µM) | Early Apoptosis (%) ([4]; 50 µM) | Late Apoptosis (%) ([4]; 50 µM) | Dead (%) ([4]; 100 µM) | Early Apoptosis (%) ([4]; 100 µM) | Late Apoptosis (%) ([4]; 100 µM) |
| --- | --- | --- | --- | --- | --- | --- | --- | --- | --- | --- | --- | --- | --- | --- | --- | --- | --- | --- | --- |
| O=C(/C=C/c1ccc(O)cc1)Nc1nc2ccccc2s1 [BZTcin2, (E)-N-(benzo[d]thiazol-2-yl)-3-(4-hydroxyphenyl)acrylamide] | 32240.17 | 335.6 nm | 43.73 ± 2.83 µmolTE/g | 12.26 | 1.49 | 11.79 | 380 nm | – | – | – | – | – | – | – | – | – | – | – | – |
| O=C(/C=C/c1ccc(O)c(O)c1)Nc1nc2ccccc2s1 [BZTcin4, (E)-N-(benzo[d]thiazol-2-yl)-3-(3,4-dihydroxyphenyl)acrylamide] | 22387.64 | 347.7 nm | 4583.10 µmolTE/g and 4583.10 ± 22.68 µmolTE/g | 9.70 | 1.39 | 11.40 | 380 nm | 0.41% | 1.83% | 3.05% | 1.96% | 1.13% | 15.56% | – | – | – | – | – | – |
| COc1ccc(/C=C/C(=O)Nc2nc3ccccc3s2)cc1O [BZTcin5, (E)-N-(benzo[d]thiazol-2-yl)-3-(3-hydroxy-4-methoxyphenyl)acrylamide] | 20688.20 | 342.0 nm | 2043.33 ± 12.03 µmolTE/g | 3.84 | 1.11 | 3.61 | 378 nm | – | – | – | – | – | – | 0.19% | 2.29% | 3.73% | 0.20% | 1.84% | 5.00% |
| O=C(N/N=C/c1ccc(O)cc1)c1nc2ccccc2s1 [BZTidr2, (E)-N′-(4-hydroxybenzylidene)benzo[d]thiazole-2-carbohydrazide] | 28637.64 | 335.3 nm | 1160.24 ± 17.34 µmolTE/g | 1.85 | 1.09 | 1.96 | 386 nm | – | – | – | – | – | – | – | – | – | – | – | – |
